Assay results published in patent EP0212404A1, “7-oxo-4-thia-1-azabicyclo [3.2.0] hept-2-ene derivatives” (HOECHST AKTIENGESELLSCHAFT, priority 1985, dated 1987).
Converted amounts (≈) assume the structure as drawn. Like-named read-outs stand apart in the source and are kept apart here.

Tests used:
Experiment in all cases: agar dilution test (MIC)
Assay type in all cases: cell-based
[1] = tested on: E.coli 055; conditions: Escherichia coli, Mueller Hinton agar, 16 to 18 hours at 37°C, read-out: Minimum Inhibitory Concentration (MIC)
Experimental: (§1) The antimicrobial activity was determined by measuring the Minimum Inhibitory Concentration (MIC). The MIC of the compounds was determined by a standard test, the "agar dilution test" according to Lorian (Antibiotics in Laboratory Medicine, Williams and Wilkins, Baltimore/London 1980) as follows:
(§2) A two-fold decreasing concentration series of each compound was prepared in Petri dishes containing 15 ml of Mueller Hinton agar (Difco). One Petri dish containing only the Mueller Hinton agar served as control for bacterial growth. Each Petri dish was inoculated with a multi-point inoculator (Denley), which transferred 0.6µl of a 1:100 diluted 18 hours culture of the appropriate test bacterium. After 16 to 18 hours of incubation at 37°C the Petri dishes were examined for growth of bacteria. The lowest concentration of the compound which causes complete inhibition of growth is taken as the MIC except that the growth of a single colony or a haze is not taken as evidence of qrowth.

[2] = tested on: Staph.aureus SG511; conditions: Staphylococcus aureus, Mueller Hinton agar, 16 to 18 hours at 37°C, read-out: Minimum Inhibitory Concentration (MIC)
Experimental: as §1, §2

[3] = tested on: Bac.subt. ATCC6633; conditions: Mueller Hinton agar, 16 to 18 hours at 37°C, read-out: Minimum Inhibitory Concentration (MIC)
Experimental: as §1, §2

[4] = tested on: E.coli DC0; conditions: Escherichia coli, Mueller Hinton agar, 16 to 18 hours at 37°C, read-out: Minimum Inhibitory Concentration (MIC)
Experimental: as §1, §2

[5] = tested on: E.coli TEM; conditions: Escherichia coli, read-out: Minimum Inhibitory Concentration (MIC)
Experimental: as §1, §2

[6] = tested on: Str.pyogenes 77A; conditions: Streptococcus pyogenes, Mueller Hinton agar, 16 to 18 hours at 37°C, read-out: Minimum Inhibitory Concentration (MIC)
Experimental: as §1, §2

[7] = tested on: E.coli KN126; conditions: Escherichia coli, Mueller Hinton agar, 16 to 18 hours at 37°C, read-out: Minimum Inhibitory Concentration (MIC)
Experimental: as §1, §2

[8] = tested on: Ent.cloacae P99; conditions: Enterobacter cloacae, Mueller Hinton agar, 16 to 18 hours at 37°C, read-out: Minimum Inhibitory Concentration (MIC)
Experimental: as §1, §2

[9] = tested on: Ent.cloacae 1321E; conditions: Enterobacter cloacae, read-out: Minimum Inhibitory Concentration (MIC)
Experimental: as §1, §2

[10] = tested on: Str.faecium D; conditions: Enterococcus faecium, read-out: Minimum Inhibitory Concentration (MIC)
Experimental: as §1, §2

[11] = tested on: Str.pyogenes 308A; conditions: Streptococcus pyogenes, Mueller Hinton agar, 16 to 18 hours at 37°C, read-out: Minimum Inhibitory Concentration (MIC)
Experimental: as §1, §2

[12] = tested on: Kl.aerog. 1522E; conditions: read-out: Minimum Inhibitory Concentration (MIC)
Experimental: as §1, §2

[13] = tested on: Staph.aureus 285; conditions: Staphylococcus aureus, Mueller Hinton agar, 16 to 18 hours at 37°C, read-out: Minimum Inhibitory Concentration (MIC)
Experimental: as §1, §2

[14] = tested on: Staph.aureus 503; conditions: Staphylococcus aureus, Mueller Hinton agar, 16 to 18 hours at 37°C, read-out: Minimum Inhibitory Concentration (MIC)
Experimental: as §1, §2

[15] = tested on: E.coli 1507E; conditions: Escherichia coli, read-out: Minimum Inhibitory Concentration (MIC)
Experimental: as §1, §2

[16] = tested on: E.coli DC2; conditions: Escherichia coli, Mueller Hinton agar, 16 to 18 hours at 37°C, read-out: Minimum Inhibitory Concentration (MIC)
Experimental: as §1, §2

[17] = tested on: Salm.typh. MZII; conditions: Mueller Hinton agar, 16 to 18 hours at 37°C, read-out: Minimum Inhibitory Concentration (MIC)
Experimental: as §1, §2

[18] = tested on: Kl.aerog. 1082E; conditions: Mueller Hinton agar, 16 to 18 hours at 37°C, read-out: Minimum Inhibitory Concentration (MIC)
Experimental: as §1, §2

[19] = Kl.aerog. 1522E, Mueller Hinton agar, 16 to 18 hours at 37°C
[20] = Str.faecium D, Mueller Hinton agar, 16 to 18 hours at 37°C
[21] = Ent.cloacae 1321E, Mueller Hinton agar, 16 to 18 hours at 37°C
[22] = E.coli 1507E, Mueller Hinton agar, 16 to 18 hours at 37°C

Structure (SMILES)	MIC [1] [mg/L]	MIC [2] [mg/L]	MIC [3] [mg/L]	MIC [4] [mg/L]	MIC [5] [mg/L]	MIC [6] [mg/L]	MIC [7] [mg/L]	MIC [8] [mg/L]	MIC ([9]; 1321E) [mg/L]	MIC [11] [mg/L]	MIC [12, 19] [mg/L]	MIC [13] [mg/L]	MIC [14] [mg/L]	MIC ([15]; 1507E) [mg/L]	MIC [16] [mg/L]	MIC [17] [mg/L]	MIC [18] [mg/L]	MIC [10, 20] [mg/L]	MIC [12] [mg/L]	MIC [9, 21] [mg/L]	further results
C[C@@H](O)[C@H]1C(=O)N2C(C(=O)O)=C(c3ccc(F)cc3)S[C@H]12 [Example 4-F]	1.56 (≈ 5.04 µM)	0.19 (≈ 0.614 µM)	0.1 (≈ 0.323 µM)	25 (≈ 80.8 µM)	6.25 (≈ 20.2 µM)	< 0.05	6.25 (≈ 20.2 µM)	25 (≈ 80.8 µM)	3.13 (≈ 10.1 µM)	< 0.05	12.5 (≈ 40.4 µM)	0.19 (≈ 0.614 µM)	0.19 (≈ 0.614 µM)	6.25 (≈ 20.2 µM)	1.56 (≈ 5.04 µM)	3.13 (≈ 10.1 µM)	1.56 (≈ 5.04 µM)	–	–	–	MIC [10]: 3.13 mg/L (≈ 10.1 µM)
C[C@@H](O)[C@H]1C(=O)N2C(C(=O)O)=C(c3ccc(Cl)cc3)S[C@H]12 [Example 4-Cl]	3.13 (≈ 9.61 µM)	0.05 (≈ 0.153 µM)	0.05 (≈ 0.153 µM)	25 (≈ 76.7 µM)	12.5 (≈ 38.4 µM)	< 0.05	12.5 (≈ 38.4 µM)	50 (≈ 153 µM)	6.25 (≈ 19.2 µM)	< 0.05	–	0.1 (≈ 0.307 µM)	0.1 (≈ 0.307 µM)	12.5 (≈ 38.4 µM)	0.39 (≈ 1.2 µM)	6.25 (≈ 19.2 µM)	0.78 (≈ 2.39 µM)	1.56 (≈ 4.79 µM)	12.5 (≈ 38.4 µM)	–	–
CC(O)C1C(=O)N2C(C(=O)O)=C(c3ccc(C(N)=O)cc3)SC12 (stereo not drawn) [Example 4-CONH2, 3-(4-aminocarbonylphenyl)-6-(1-hydroxyethyl)-7-oxo-4-thia-1-azabicyclo[3.2.0]hept-2-ene 2-carboxylic acid]	0.19 (≈ 0.568 µM)	0.05 (≈ 0.15 µM)	0.05 (≈ 0.15 µM)	0.78 (≈ 2.33 µM)	0.39 (≈ 1.17 µM)	0.013 (≈ 0.0389 µM)	0.39 (≈ 1.17 µM)	6.25 (≈ 18.7 µM)	–	0.013 (≈ 0.0389 µM)	0.39 (≈ 1.17 µM)	0.1 (≈ 0.299 µM)	0.1 (≈ 0.299 µM)	–	0.39 (≈ 1.17 µM)	–	0.39 (≈ 1.17 µM)	1.56 (≈ 4.67 µM)	–	0.39 (≈ 1.17 µM)	MIC [15, 22]: 0.39 mg/L (≈ 1.17 µM)
CSc1cccc(C2=C(C(=O)O)N3C(=O)[C@H]([C@@H](C)O)[C@H]3S2)c1 [Example 3-SCH3]	3.13 (≈ 9.28 µM)	0.1 (≈ 0.296 µM)	0.05 (≈ 0.148 µM)	12.5 (≈ 37 µM)	6.25 (≈ 18.5 µM)	< 0.05	6.25 (≈ 18.5 µM)	50 (≈ 148 µM)	6.25 (≈ 18.5 µM)	< 0.05	–	0.19 (≈ 0.563 µM)	0.19 (≈ 0.563 µM)	6.25 (≈ 18.5 µM)	0.39 (≈ 1.16 µM)	–	0.39 (≈ 1.16 µM)	1.56 (≈ 4.62 µM)	6.25 (≈ 18.5 µM)	–	–
C[C@@H](O)[C@H]1C(=O)N2C(C(=O)O)=C(c3ccc(NC=O)cc3)S[C@H]12 [Example 4-NHCHO]	0.19 (≈ 0.568 µM)	0.05 (≈ 0.15 µM)	0.025 (≈ 0.0748 µM)	0.78 (≈ 2.33 µM)	0.39 (≈ 1.17 µM)	< 0.013	0.39 (≈ 1.17 µM)	6.25 (≈ 18.7 µM)	–	< 0.013	0.39 (≈ 1.17 µM)	0.1 (≈ 0.299 µM)	0.1 (≈ 0.299 µM)	–	0.19 (≈ 0.568 µM)	–	0.19 (≈ 0.568 µM)	0.78 (≈ 2.33 µM)	–	0.39 (≈ 1.17 µM)	MIC [15, 22]: 0.39 mg/L (≈ 1.17 µM)
